Data from paper PMC8791477, “Evaluation of SARS-CoV-2 entry, inflammation and new therapeutics in human lung tissue cells” (PLoS Pathogens, 2022).
Where a name gives a salt, the structure may show the parent alone. Read-outs that look alike come from different tables or passages of the source.

Columns and labels:
[1] = system: VSV*ΔG(Luc)-S virus (SARS-CoV-2 spike, D614G); settings: for EC50: read-out: EC50 HLT
[2] = system: VSV*ΔG(Luc)-S virus (SARS-CoV-2 spike, D614G); settings: for EC50: read-out: EC50 Vero E6

CN(C)C(=O)COC(=O)Cc1ccc(OC(=O)c2ccc(NC(=N)N)cc2)cc1 [Camostat, Camostat mesylate]
viral entry in HLT cells with entry-factor blockers (in words) [1]: significantly inhibited viral entry

Cc1ccc(-c2cc(C(F)(F)F)nn2-c2ccc(S(N)(=O)=O)cc2)cc1 [Celecoxib]
EC50 [2]: 13 µM
EC50 [1]: 55.7 µM

COc1ccc2cc1Oc1ccc(cc1)C[C@H]1c3c(cc4c(c3Oc3cc5c(cc3OC)CCN(C)[C@@H]5C2)OCO4)CCN1C [Cepharanthine]
SI VeroE6 (CC50/EC50) [2]: 48.47
SI HLT (CC50/EC50) [1]: 2.64

CC(C)C(=O)OCC(=O)[C@@]12O[C@H](C3CCCCC3)O[C@@H]1C[C@H]1[C@@H]3CCC4=CC(=O)C=C[C@]4(C)[C@H]3[C@@H](O)C[C@@]12C [Ciclesonide]
EC50 [2]: 20.5 µM
EC50 [1]: 16.4 µM

C[C@]12CCC(=O)C=C1CC[C@@H]1[C@@H]2[C@@H](O)C[C@@]2(C)[C@H]1CC[C@]2(O)C(=O)CO [Cortisol]
EC50 Vero E6 [2]: No effect
EC50 HLT [1]: No effect

C[C@@H]1C[C@H]2[C@@H]3CCC4=CC(=O)C=C[C@]4(C)[C@@]3(F)[C@@H](O)C[C@]2(C)[C@@]1(O)C(=O)CO [Dexamethasone]
EC50 Vero E6 [2]: No effect
viral entry in VeroE6 cells (in words) [2]: without any apparent impact
EC50 HLT [1]: No effect

O=C1C[C@@H](c2ccc(O)c(O)c2)Oc2cc(O)cc(O)c21 [Eriodictyol]
viral entry in HLT cells (in words) [1]: certain activity
EC50 [1]: 90 µM

CC1(C)[C@@H](O[C@H]2O[C@H](C(=O)O)[C@@H](O)[C@H](O)[C@H]2O[C@@H]2O[C@H](C(=O)O)[C@@H](O)[C@H](O)[C@H]2O)CC[C@]2(C)[C@H]3C(=O)C=C4[C@@H]5C[C@@](C)(C(=O)O)CC[C@]5(C)CC[C@@]4(C)[C@]3(C)CC[C@@H]12 [Glycyrrhizin]
EC50 Vero E6 [2]: No effect
EC50 HLT [1]: No effect

Oc1ccc(CC2NCCc3cc(O)c(O)cc32)cc1 (stereo not shown) [Higenamine, Higenamine hydrochloride]
EC50 Vero E6 [2]: No effect
EC50 HLT [1]: No effect

Cc1cc(O)c2c(=O)c3c(O)cc(O)c4c5c(O)cc(O)c6c(=O)c7c(O)cc(C)c8c1c2c(c34)c(c78)c65 [Hypericin]
EC50 [2]: 1.24 µM
EC50 [1]: 0.31 µM

CC(C)Cc1ccc(C(C)C(=O)O)cc1 (stereo not shown) [Ibuprofen]
EC50 Vero E6 [2]: No effect
EC50 HLT [1]: No effect

O=C1Nc2ccccc2/C1=C1/Nc2ccccc2C1=O [Indirubin]
EC50 Vero E6 [2]: No effect
EC50 HLT [1]: No effect

CCCCCCCCCCCC(=O)O [Lauric acid]
EC50 Vero E6 [2]: No effect
EC50 HLT [1]: No effect

CC1(C)Cc2c(-c3ccccc3)c(-c3ccc(Cl)cc3)c(CC(=O)O)n2C1 [Licofelone]
EC50 [1]: 32.2 µM

O=c1cc(-c2ccc(O)c(O)c2)oc2cc(O)cc(O)c12 [Luteolin]
EC50 [2]: ~70.7 µM
EC50 [1]: ~82.4 µM

CN(C)C(=N)N=C(N)N [Metformin]
EC50 Vero E6 [2]: No effect
EC50 HLT [1]: No effect

CCCCCCCCCC(=O)OCC(O)CO (stereo not shown) [Monocaprin]
EC50 Vero E6 [2]: No effect
EC50 HLT [1]: No effect

CCCCCCCCCCCC(=O)OCC(O)CO (stereo not shown) [Monolaurin]
EC50 Vero E6 [2]: No effect
EC50 HLT [1]: No effect

O=c1c(O)c(-c2cc(O)c(O)c(O)c2)oc2cc(O)cc(O)c12 [Myricetin]
EC50 Vero E6 [2]: No effect
EC50 HLT [1]: No effect

O=C1CN(/N=C/c2ccc([N+](=O)[O-])o2)C(=O)N1 [Nitrofurantoin]
EC50 Vero E6 [2]: No effect
EC50 HLT [1]: No effect

Cc1cccn2c(=O)c(-c3nnn[nH]3)cnc12 [Pemirolast, Pemirolast potassium]
EC50 Vero E6 [2]: No effect
EC50 HLT [1]: No effect

[H]/N=C(/N)N/C(=N/[H])NCCc1ccccc1 [Phenformin]
viral entry in HLT cells (in words) [1]: significantly reduced viral entry
EC50 [1]: 38.2 µM

C[C@]12C=CC(=O)C=C1CC[C@@H]1[C@@H]2C(=O)C[C@@]2(C)[C@H]1CC[C@]2(O)C(=O)CO [Prednisone]
EC50 Vero E6 [2]: No effect
viral entry in VeroE6 cells (in words) [2]: without any apparent impact
EC50 HLT [1]: Some effect
viral entry in HLT cells (in words) [1]: partial reduction of viral entry

NC(=O)[C@@H]1CCCN1C(=O)[C@H](Cc1c[nH]cn1)NC(=O)[C@@H]1CCC(=O)N1 [Protilerin]
EC50 Vero E6 [2]: No effect
EC50 HLT [1]: No effect

O=c1c(O)c(-c2ccc(O)c(O)c2)oc2cc(O)cc(O)c12 [Quercetin]
viral entry in VeroE6 cells (in words) [2]: some viral entry suppression
EC50 [2]: > 100 µM

CCCCCCCCCCCCOS(=O)(=O)[O-].[Na+] [SLS, Sodium lauryl sulfate]
EC50 [2]: ~26.4 µM
EC50 [1]: > 100 µM

N[C@@H](CC(=O)N1CCn2c(nnc2C(F)(F)F)C1)Cc1cc(F)c(F)cc1F [Sitagliptin]
EC50 Vero E6 [2]: No effect
EC50 HLT [1]: No effect

Cc1ccnc(NS(=O)(=O)c2ccc(N)cc2)n1 [Sulfamerazine]
EC50 Vero E6 [2]: No effect
EC50 HLT [1]: No effect

Cc1cc(NS(=O)(=O)c2ccc(N)cc2)no1 [Sulfamethoxazole]
EC50 Vero E6 [2]: No effect
EC50 HLT [1]: No effect

CC1=C(CC(=O)O)c2cc(F)ccc2/C1=C\c1ccc([S+](C)[O-])cc1 (stereo not shown) [Sulindac]
EC50 Vero E6 [2]: No effect
EC50 [1]: > 100 µM

C[C@]1(Cn2ccnn2)[C@H](C(=O)O)N2C(=O)C[C@H]2S1(=O)=O [Tazobactam]
EC50 Vero E6 [2]: No effect
EC50 HLT [1]: No effect

C[C@H](O)[C@H](O)[C@H]1CNc2nc(N)[nH]c(=O)c2N1 [Tetrahydrobiopterin, Tetrahydrobiopterin dihydrochloride]
EC50 Vero E6 [2]: No effect
EC50 HLT [1]: No effect

CC(C)[C@H](N)C(=O)OCCOCn1cnc2c(=O)[nH]c(N)nc21 [Valaciclovir]
viral entry in HLT cells (in words) [1]: some inhibitory potential
EC50 [1]: > 100 µM

N#C[C@@H]1CCCN1C(=O)CNC12CC3CC(CC(O)(C3)C1)C2 [Vidagliptin, Vildagliptin]
EC50 Vero E6 [2]: No effect
EC50 HLT [1]: No effect

Nc1ncnc2c1ncn2[C@@H]1O[C@H](CO)[C@@H](O)[C@@H]1O [Vidarabine]
EC50 [2]: > 100 µM
EC50 [1]: 51.6 µM

Ergoloid mesylates
SI VeroE6 (CC50/EC50) [2]: 3.9
EC50 [2]: 4.78 µM
SI HLT (CC50/EC50) [1]: 11.38
viral entry inhibition in HLT cells [1]: ~ 90%
EC50 [1]: 9.17 µM

Ivermectin
SI VeroE6 (CC50/EC50) [2]: 1.4
EC50 [2]: 13.9 µM
SI HLT (CC50/EC50) [1]: 7.75
viral entry in HLT cells (in words) [1]: effective antiviral
EC50 [1]: 13 µM

recombinant protein AXL
viral entry in HLT cells with entry-factor blockers (in words) [1]: inhibited SARS-CoV-2 entry
